1 compound from patent US10232043B2, “Photoactivated molecules for light-induced modulation of the activity of electrically excitable cells and methods of using the same” (UNIVERSITY OF SOUTHERN CALIFORNIA, priority 2015, dated 2019) can be followed below.

For one data set, the system named is INS cells. The data set is described as follows: Whole cell patch clamp, current-clamp membrane potential under light. Format: cell-based, rat. Conditions: for light-induced increase of membrane potential: 488 nm. The protocol: (§1) Membrane potential was monitored using whole cell patch clamp in current-clamp mode. Cultured cells (INS and HEK293) were plated on a glass-bottomed culture dishes 1-3 days prior to recording. Cells were incubated in standard extracellular solution with or without 10 μM RubpyC17 compound for approximately 1.5-2 minutes, then washed and incubated with standard extracellular solution without additional supplementation, or with 2-5 mM ascorbate, 100 μM sodium ferrocyanide, or 100-200 μM potassium ferricyanide, as indicated. The chamber was transferred to the microscope stage. Extracellular solution consisted of 140 mM NaCl, 2.8 mM KCl, 10 mM HEPES, 1 mM MgCl2, 2 mM CaCl2, 10 mM glucose, pH adjusted to 7.3, and osmolarity adjusted to 300-310. Conventional whole-cell patch clamp recordings were performed with an EPC-9 amplifier and Pulse software (HEKA Electronics). Pipette electrodes of 1.8-3.5 Mohm were fire polished before use. Intracellular solution consisted of: 145 mM KCl, 10 mM NaCl, 1 mM MgCl2, 1 mM EGTA, 2 mM ATP, 0.3 mM GTP and 10 mM HEPES, pH adjusted to 7.3 and osmolarity adjusted to 290-300 mOsm. To monitor changes in membrane voltage/potential, cells were patch clamped in current-clamp mode. Access resistances were in the range of 3-8 Mohm. Using Pulse, membrane potentials were recorded before, during and after illumination by the argon ion laser at 488 nm with an irradiance value of 0.458 mE s^−1 m^−2 or by a xenon lamp source through a 470/40 nm bandpass excitation filter with an irradiance value of 0.480 mE s^−1 m^−2. The duration of illumination varied and the timing is indicated by bars on the figures.
Initial attempts were tied to INS and HEK cells, both cells that are not excitable under normal conditions (INS cells were maintained in low glucose <3 mM to prevent action potentials). The cells were incubated in 10 μM of RubpyC17 compound for approximately 2 minutes then washed with standard extracellular solution, supplemented with 2 mM ascorbate. It was hypothesized that when RubpyC17 is incorporated into the cell membrane, illumination would induce accumulation of negative charges at the outer face of the cell membrane, due to transfer of an electron from ascorbate to the photoactivated RubpyC17 resulting in membrane depolarization. To monitor the plasma membrane potential, the cells were patch-clamped in whole-cell configuration in current-clamp mode and membrane voltages were recorded while illuminating the cell at 488 nm (0.46-0.48 mE s^−1 m^−2), though other wavelengths are useful, depending on the embodiment.
(In patch-clamp work, channel activity is measured electrically.)

Data set [1] has as its system HEK293T cells. The data set is described as above. Format: cell-based, human. On the procedure:
as §1, with “The duration of illumination varied and the timing is indicated by bars on the figures.” left out
Initial attempts were tied to INS and HEK cells, both cells that are not excitable under normal conditions (INS cells were maintained in low glucose <3 mM to prevent action potentials). […] To monitor the plasma membrane potential, the cells were patch-clamped in whole-cell configuration in current-clamp mode and membrane voltages were recorded while illuminating the cell at 488 nm (0.46-0.48 mE s^−1 m^−2), though other wavelengths are useful, depending on the embodiment. […]

The subject of data set [2] is HEK293T cells. The data set is described as follows: Voltage-clamp membrane current under light. Format: cell-based, human. Conditions: approximately −80 mV. On the procedure: To examine whether light-activated RubpyC17 can directly interact and open or block endogenous ion channels, HEK293T cells were preincubated with RubpyC17, and patch-clamped in a voltage-clamp configuration. Voltage-clamp configuration allowed the cells to be clamped at a potential where most voltage-gated ion channels are closed (approximately −80 mV). […] The current-voltage relationship (see FIGS. 21C and 21D) as well as the steady-state voltage-dependent activation curves of RubpyC17-treated chromaffin cells in voltage-clamp mode before and during light illumination (see FIG. 21E).

Data set [3] has as its system cell lines and primary cells. Put plainly: Cell tolerance to RubpyC17 incubation (gigaseal stability, viability). Format: cell-based. The protocol:
However, in several embodiments, other organic ligands coupled to other transition metals are also used, with reduced and/or non-existent adverse side effects. […] Excessive and prolonged whole cell incubation with RubpyC17 (e.g., >10 μM for >5 min) may result in cell toxicity, since a stable gigaseal cannot be stably maintained in those cells. At this time, the mechanism behind the adverse effects on cell health upon RubpyC17 overexposure is not yet fully known. Since perforation was not achieved when a small patch of membrane was exposed to a high dose of RupbyC17, it was hypothesized that when an entire cell is overexposed to RubpyC17, there may be sufficient random interactions between excess RubpyC17 complex and endogenous surface molecules (i.e., proteins, carbohydrates, sugars), triggering signals that lead to cell health deterioration. However, when used in its appropriate dose range (e.g., <about 10 μM for cell lines and <about 2 μM for primary cells, according to one embodiment), RubpyC17 is tolerated by cells and consistently confers light sensitivity.

The next data set relates to RCS rats. Put plainly: Extracellular recording from superior colliculus after intravitreal injection. In kind it is in vivo, rat. An excerpt:
FIGS. 27C-27F depict data related to administration of Rubpy-C17. White light was used for illumination in panels A, C, and D, while blue light (450 nm) was used in panels B, E, and F.
This finding was reproduced in 3 of 3 RCS rats injected with Rubpy-C17, and in 2 of 2 control (sham injection) RCS rats.

Take `CCCCCCCCCCCCCCCCCc1ccnc(-c2cc(C)ccn2)c1.F[P-](F)(F)(F)(F)F.F[P-](F)(F)(F)(F)F.[Ru+2].c1ccc(-c2ccccn2)nc1.c1ccc(-c2ccccn2)nc1` [RubpyC17, [Ru(bpy)2(bpy-C17)](PF6)2]: in the data set on INS cells (0.46-0.48 mE s−1 m2, FIGS. 18B-18F), the “continuous illumination required to reach maximum light-triggered depolarization” value was approximately 30 s. Further, the “light-induced increase of membrane potential” value turned out to be 15.9 ± 4.6 mV with INS cells (INS cells, 10 μM ~2 min, 2 mM ascorbate) and 9.8 ± 4.5 mV in the data set on INS cells (INS cells, absence of ascorbate). In addition, the “light-triggered depolarization with non-permeating ions” value in the data set on INS cells (INS cells, cesium and NMDG instead of potassium and sodium) is “still persisted”. The “illumination time at which cells undergo membrane potential change” value with INS cells (oxidants (ferricyanide) present, FIG. 18A) is not below 10 s; in the data set with INS cells (reductants (ascorbate) present, INS and HEK293T (FIG. 18A)) it was not below 25 s. In the data set with INS cells (presence of reductants), the “reversibility of light-induced depolarization” value is on record as “appears to be irreversible”. This compound gave a light-induced hyperpolarization with HEK293T cells [1] (100 uM ferricyanide in extracellular solution) of 20.9 ± 4.9 mV. Moreover, the “light-induced depolarization with ferrocyanide as reductant” value in the data set with HEK293T cells [1] (HEK293T, 0.1 mM ferrocyanide) is reported as “light-induced depolarization was also observed”. Moreover, in the data set with HEK293T cells [1] (HEK293 cells, presence of ascorbate), the light-induced depolarization came to 14.6 ± 2.4 mV. Besides, the “light-induced changes in membrane current” value with HEK293T cells [2] is “did not exhibit light-induced changes in membrane current”. Also, the “dose range tolerated by cells” value is less than 10 µM in data set [3] (cell lines) and less than 2 µM in data set [3] (primary cells). The viability after incubation result in data set [3] (chromaffin cells, ~30 min with RubpyC17) is given as “continued viability of chromaffin cells”. The “whole cell incubation concentration that may result in cell toxicity” value in data set [3] (for >5 min, stable gigaseal not maintained) was more than 10 µM. Further, in the data set on RCS rats (RCS rats injected with Rubpy-C17), the “rats in which the finding was reproduced” value is listed as 3 of 3. In addition, in the data set on RCS rats (eye injection, RCS rats), the “time after injection with light-induced SC electrical responses” value is listed as “up to 3 days”. Moreover, the “light-elicited electrical activity in superior colliculus field recording” value in the data set with RCS rats (intravitreal, final concentration 100 μM, 30 minutes later, blind RCS rats) was “elicited reproducible and stereotypical electrical activity”.
